Experimental data: US9926306B2, “Inhibition of MCL-1 and/or BFL-1/A1” (Dana-Farber Cancer Institute, Inc., priority 2012, dated 2018)
pIC50: −log10 of the molar value.

Tests used:
[1] = tested on: BCL-XL-rescued p185+Arf−/−Mcl-1−/− CML cells; test: Cell viability (CellTiter-Glo), BCL-XL-dependent leukemia cells; type: cell-based, murine; details: Mus musculus, 24 h
Protocol: Cell viability was assayed at 24 h by addition of CellTiter-Glo reagent according to the manufacturer's protocol (Promega), and luminescence was measured using a SpectraMax M5 microplate reader (Molecular Devices). […] Viability and caspase assays were performed in duplicate, repeated at least twice with independent cell cultures, and the data normalized to vehicle-treated control wells.

[2] = tested on: parental p185+Arf−/− CML cells; test: Cell viability and CalcuSyn synergy, parental leukemia cells; type: cell-based, murine; details: Mus musculus; parental cells expressing both MCL-1 and BCL-XL; read-out: IC50, cytotoxicity
Protocol: (§1) p185^+Arf^−/− and MCL-1 or BCL-XL-rescued p185^+Arf^−/−Mcl^−/− cells were maintained in RPMI 1640 (ATCC) supplemented with 10% (v/v) FBS, 100 U/mL penicillin, 100 μg/mL streptomycin, 0.1 mM MEM non-essential amino acids and 50 μM β-mercaptoethanol. Mouse embryonic fibroblasts (MEFs) cells were maintained in DMEM high glucose (Invitrogen) supplemented with 10% (v/v) FBS, 100 U/mL penicillin, 100 μg/mL streptomycin, 2 mM L-glutamine, 50 mM HEPES, 0.1 mM MEM non-essential amino acids and 50 μM β-mercaptoethanol. […] Cell viability was assayed at 24 h by addition of CellTiter-Glo reagent according to the manufacturer's protocol (Promega), and luminescence was measured using a SpectraMax M5 microplate reader (Molecular Devices). Caspase 3/7 activation was assayed at 8 h by addition of Caspase-Glo 3/7 reagent according to manufacturer's protocol (Promega), and luminescence measured using a SpectraMax M5 microplate reader. Viability and caspase assays were performed in duplicate, repeated at least twice with independent cell cultures, and the data normalized to vehicle-treated control wells.

[3] = tested on: BCL-XL-rescued p185+Arf−/−Mcl-1−/− CML cells; test: Caspase 3/7 activation (Caspase-Glo), BCL-XL-dependent leukemia cells; type: cell-based, murine; details: 8 h
Protocol: p185^+Arf^−/− and MCL-1 or BCL-XL-rescued p185^+Arf^−/−Mcl^−/− cells were maintained in RPMI 1640 (ATCC) supplemented with 10% (v/v) FBS, 100 U/mL penicillin, 100 μg/mL streptomycin, 0.1 mM MEM non-essential amino acids and 50 μM β-mercaptoethanol. […] Caspase 3/7 activation was assayed at 8 h by addition of Caspase-Glo 3/7 reagent according to manufacturer's protocol (Promega), and luminescence measured using a SpectraMax M5 microplate reader. Viability and caspase assays were performed in duplicate, repeated at least twice with independent cell cultures, and the data normalized to vehicle-treated control wells.

[4] = tested on: wild-type or Bax−/−Bak−/− MEFs; test: Cell viability (CellTiter-Glo), MEFs; type: cell-based, mouse; details: non-malignant fibroblasts, 24 h
Protocol: as §1

[5] = tested on: wild-type or Bax−/−Bak−/− MEFs; test: Caspase 3/7 activation (Caspase-Glo), MEFs; type: cell-based, mouse; details: 8 h
Protocol: as §1

MCL-1ΔNΔC [6] = target: T1, MCL-1ΔNΔC (Homo sapiens (Human), UniProt Q07820); test: BAX-mediated liposomal release assay, suppression by MCL-1; type: biochemical
T1 sequence (Q07820 172-327, stated change not applied): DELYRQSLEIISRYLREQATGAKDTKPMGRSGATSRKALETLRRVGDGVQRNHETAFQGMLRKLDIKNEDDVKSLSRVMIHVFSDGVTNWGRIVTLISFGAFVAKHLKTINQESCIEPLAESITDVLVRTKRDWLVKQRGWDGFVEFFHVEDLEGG
Protocol: (§2) Liposomes were prepared and release assays performed as previously described^46,47. Liposomal composition reflects a mixture of the following molar percentages of lipids (Avanti Polar Lipids): phosphatidylcholine, 48%; phosphatidylethanolamine, 28%; phosphatidylinositol, 10%; dioleoyl phosphatidylserine, 10%; and tetraoleoyl cardiolipin, 4%. Aliquots of mixed lipids (1 mg total) are stored in glass at −20° C. under nitrogen, and before use, resuspended in liposome assay buffer (10 mM HEPES, 200 mM KCl, 1 mM MgCl2, pH 7) containing 12.5 mM of the fluorescent dye ANTS (8-aminonaphthalene-1,3,6-trisulfonic acid, disodium salt) and 45 mM of the quencher DPX (p-xylene-bis-pyridinium bromide. The resulting slurry is vortexed for 10 min and freeze-thawed five times in liquid nitrogen and a 40° C. water bath, respectively. The solution is then passed through an Avanti Mini-Extruder Set (#610000) equipped with a 100 nm filter, followed by passage through a Sepharose column (GE Healthcare) to remove residual ANTS/DPX.

BCL-XLΔC = BCL-XLΔC (Homo sapiens (Human), UniProt Q07817); test: BAX-mediated liposomal release assay, suppression by BCL-XL; type: biochemical
BCL-XLΔC, sequence (Q07817 1-212): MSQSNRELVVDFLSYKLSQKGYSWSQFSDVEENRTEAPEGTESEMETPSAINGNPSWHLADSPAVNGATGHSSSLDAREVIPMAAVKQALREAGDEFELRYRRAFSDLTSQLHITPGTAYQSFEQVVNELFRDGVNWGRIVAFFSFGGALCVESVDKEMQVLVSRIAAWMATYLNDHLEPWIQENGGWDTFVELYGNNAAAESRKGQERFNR
Protocol: as §2

[7] = tested on: MCL-1-rescued p185+Arf−/−Mcl-1−/− CML cells; test: Cell viability (CellTiter-Glo), MCL-1-dependent leukemia cells; type: cell-based, murine; details: MCL-1-dependent cells
Text: A challenges in developing and applying molecular antagonists for BCL-2 family anti-apoptotic proteins is the variable expression of multiple homologues. That is, a cancer cell will only be susceptible to a selective anti-apoptotic inhibitor if the cell is especially dependent on that particular survival protein. […] To test MIM1's activity and specificity in cancer cells, we employed murine p185^+Arf^−/−Mcl-1^−/− chronic myelogenous leukemia (CML) cells that are unable to survive unless reconstituted with MCL-1, reflecting a stringent system for assessing MCL-1 dependence.
p185^+Arf^−/− and MCL-1 or BCL-XL-rescued p185^+Arf^−/−Mcl^−/− cells were maintained in RPMI 1640 (ATCC) supplemented with 10% (v/v) FBS, 100 U/mL penicillin, 100 μg/mL streptomycin, 0.1 mM MEM non-essential amino acids and 50 μM β-mercaptoethanol. […] Cell viability was assayed at 24 h by addition of CellTiter-Glo reagent according to the manufacturer's protocol (Promega), and luminescence was measured using a SpectraMax M5 microplate reader (Molecular Devices). Caspase 3/7 activation was assayed at 8 h by addition of Caspase-Glo 3/7 reagent according to manufacturer's protocol (Promega), and luminescence measured using a SpectraMax M5 microplate reader. […]

MCL-1ΔNΔC [8] = target: T1, MCL-1ΔNΔC; test: Competitive fluorescence polarization binding assay, MCL-1; details: competitive FP
Protocol: Here, we deployed MCL-1 SAHBA as a high fidelity screening tool to determine if its potency and specificity-of-action could be harnessed for small molecule discovery. […] A compilation of 71,296 small molecules was screened for the capacity to displace FITC-MCL-1 SAHBA from recombinant MCL-1ΔNΔC (aa 172-327) (FIG. 4).
Fluorescence polarization assays (FPA) were performed as previously described^38,39. […] Fluorescence polarization was measured at equilibrium and IC50 values calculated by nonlinear regression analysis of competitive binding curves using Prism software (Graphpad).

- pIC50 [1]: 5.80
- caspase 3/7 activation [5]: no observed caspase 3/7 activation
- blockade of MCL-1ΔNΔC suppression of tBID-induced BAX activation (MCL-1ΔNΔC [6]): no effect
- blockade of BCL-XLΔC suppression of tBID-induced BAX activation (BCL-XLΔC): negates
- MCL-1ΔNΔC binding activity (MCL-1ΔNΔC [8]): no activity
SMILES: CN(C)CC[C@H](CSc1ccccc1)Nc1ccc(S(=O)(=O)NC(=O)c2ccc(N3CCN(Cc4ccccc4-c4ccc(Cl)cc4)CC3)cc2)cc1[N+](=O)[O-] [ABT-737, N-(4-(4-((4′-chloro(1,1′-biphenyl)-2-yl)methyl)piperazin-1-yl)benzoyl)-4-(((1R)-3-(dimethylamino)-1-((phenylsulfanyl)methyl)propyl)amino)-3-nitrobenzenesulfonamide, reference compound]
- pIC50 [2]: 5.29
- caspase 3/7 activation [3]: dose-responsive caspase 3/7 activation
- effect on viability / toxicity [4]: no significant effect
- effect on viability / cytotoxicity [7]: no effect
